According to patent publication US20240408218A1, “CONJUGATES OF GLUCAGON AND AMPK ACTIVATORS” (KØBENHAVNS UNIVERSITET, priority 2021, published 2024):

Legend:
[1] = Body weight in diet-induced obesity (DIO) mice, 7 days treatment; format: in vivo; settings: s.c. once daily
Method: C57BL6J male mice, in the following referred to as diet-induced obesity (DIO) mice, were maintained on a high-fat diet (58% energy from fat) and had, for each study, an average body weight of more than 45 gram prior to study start. Mice were either housed individually or double-housed. The mice were maintained on a 12 h dark-light cycle at 21-23° C. Compounds were administered subcutaneously once daily (between 2 pm-5 pm) and food intake (FI) and body weight (BW) measured at the corresponding time. For body composition, measures of fat and lean mass were performed prior to the study (1-3 days prior to study start) and on the final day of the study using an MRI scanner (EchoMRI). The group of mice injected with a vehicle (saline) served as the control group.

[2] = background, Myers et al. Science 2017; cited from earlier work

SMILES | reduction in body weight percentage (BW %) ([1]; FIG. 3, conjugate 100 nmol/kg or equimolar doses) [%] | adverse effect halting use of the compound [2] | reduction in body weight (BW %) compared to control group ([1]; FIG. 9, conjugate 100 nmol/kg or equimolar doses) [%]
O[C@@H]1CO[C@H]2[C@@H]1OC[C@H]2Oc1nc2c(Cl)c(-c3ccc(-c4ccccc4)cc3)cnc2[nH]1 [MK-8722, (3R,3aR,6R,6aR)-6-((6-([1,1′-biphenyl]-4-yl)-7-chloro-3H-imidazo[4,5-b]pyridin-2-yl)oxy)hexahydrofuro[3,2-b]furan-3-ol, reference compound] | ~4 | induction of cardiac hypertrophy | –
NC(=O)c1ncn([C@@H]2O[C@H](CO)[C@@H](O)[C@H]2O)c1N [AICAR, 5-Aminoimidazole-4-carboxamide 1-β-D-ribofuranoside, reference compound] | – | – | ~4
